# Laboratory results taken from US10471059B2, “Compositions and methods of using tyrosine kinase inhibitors” (YALE UNIVERSITY, priority 2015, dated 2019).
# Entries after “also recorded” stand apart in the source; their conditions may differ. Like-named read-outs stand apart in the source and are kept apart here. Marks after values point to notes of the source that are not given here.
# Tests used:
# Ptpn11^Y279C/+ mice = assay: Quantitative RT-PCR of heart RNA, NSML mice, postnatal dasatinib; format: in vivo
# Method: FIG. 25, comprising FIGS. 25a-25f, is a panel of graphs showing the improvement in molecular markers of cardiomyopathy and fibrosis in NSML (Y279C/+) mice following dasatinib treatment. Total heart RNA was isolated from postnatal vehicle- or dasatinib-treated (0.1 mg/kg/day) WT and Ptpn11^Y279C/+ mice (P42). Fibrosis marker genes, Col1a2 (FIG. 25a) and Col3a1 (FIG. 25b), markers of cardiomyopathy ANP (FIG. 25c) and cardiac fetal genes, Myh6 (αMHC) (FIG. 25d), Myh7 (bMHC) (FIG. 25e), and Myh6/Myh7 ratio (FIG. 25f) were measured by quantitative RT-PCR (n=6 for each group). All data represent mean±SEM. *, p<0.05; **, p<0.01; ***, p<0.001. (Two-way ANOVA test).
# RNA Extraction and Quantitative Real-Time PCR Analysis—RNA was isolated from mice heart using an RNeasy kit (Qiagen, CA) according to the manufacturer's instructions. A total of 1 μg RNA was reverse transcribed to generate cDNA using a reverse transcriptase PCR kit (Applied Biosystems, CA). Real-time quantitative PCR was carried out in triplicate using the Applied Biosystems 7500 Fast real-time PCR system and SYBR green gene expression master mix with following primer pairs.
# The data presented in FIGS. 25a-25f represents dasatinib treatment starting at post-natal day 10 (P10) for 6 weeks (P42) in wild type (WT) and NSML (Ptpn11^Y279C/+) mice. Ptpn11^Y279C/+ were obtained from Dr. Kontaridis (Beth Israel Deaconess Hospital, Boston, Mass.) and bred as described (Marin, et al, J Clin. Invest., 121:1026-1043(2011)). Mice were treated with either vehicle or dasatinib at a dose of 0.1 mg/kg/day for 6 weeks […]. At the completion of the study, wild type and Ptpn11^Y279C/+ mice were sacrificed and total RNA from the hearts was isolated and qPCR was performed for the detection of mRNA expression for genes involved in the development of cardiomyopathy, Myh6 and Myh7 and the development of cardiac fibrosis, col1a2 and Col3a1.
# [1] = system: c-Src and PZR tyrosyl phosphorylation in the heart of NS mice; assay: Phosphorylation in heart tissue after i.p. dasatinib, immunoblot; format: in vivo
# Method: Male Ptpn11D61G/+ mice were injected i.p. with dasatinib at the indicated dose or DMSO control, 24h later mice were sacrificed, heart tissue harvested and immunoblotted using the indicated antibodies.
# FIG. 13i is an image showing heart tissue immunoblotted with anti-Shp2, p-ERK1/2, ERK1/2, p-Src (Y416), Src, p-PZR (Y263) and PZR antibodies. […] Heart tissue was isolated after 18 hr and tissue lysates were immunoblotted.
# FIG. 18a is an image showing heart tissue immunoblotted with p-Raf1 (Y341), Raf1, p-MEK1/2, MEK1/2, p-INK, INK, p-p38, p38, p-Akt (S473) and Akt antibodies. Heart tissue was isolated after 18 hr and tissue lysates were immunoblotted.
# Immunoprecipitation and Immunoblotting—Cells or heart tissue were lysed on ice in lysis buffer (25 mM Tris-HCl, pH 7.4, 136 mM NaCl, 1 mM CaCl2, 1 mM MgCl2, 1% Nonidet P-40, 1 mM Na3VO4, 10 mM NaF, 1 mM benzamidine, 1 mM PMSF, 1 μg/ml pepstatin A, 5 μg/ml aprotinin, and 5 μg/ml leupeptin). Cell or tissue lysates were incubated at 4° C. for 30 min and clarified by centrifugation at 14,000 rpm at 4° C. for 10 min.
# [2] = system: WT and Ptpn11^D61G/+ mice; settings: for % EF (ejection fraction) / % FS (fractional shortening) / IVS, d (Intraventricular septum wall thickness, diastole) / IVS, s (Intraventricular septum wall thickness, systole) / LV vol, d (left ventricle volume, diastole) / LV vol, s (left ventricle volume, systole) / LVID, d (left ventricular internal dimension, diastole) / LVID, s (left ventricular internal dimension, systole) / LVPW, d (left ventricular posterior wall thickness, diastole) / LVPW, s (left ventricular posterior wall thickness, systole): n = 8, Mean ± SEM;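 for all read-outs here: echocardiography in isoflurane-anesthetized mice, M-mode tracings averaged over three to six heartbeats, FS derived from diastolic and systolic LVID, vehicle-injected mice as control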
# Method: Echocardiographic Studies—Cardiac dimensions and function were analyzed by echocardiography using a Vevo 770 console, Mice were lightly anesthetized with inhaled isoflurane (0.2% in O2). All measurements were obtained from three to six consecutive cardiac cycles, and the averaged values used for analysis. Interventricular septum wall (IVS), left ventricular internal dimension (LVID) and left ventricular posterior wall thickness (LVPW) in both end-diastolic (d), end-systolic (s) were measured from the and M-mode tracings. Diastolic measurements were performed using the leading-edge method of the American Society of Echocardiography. For TM-mode measurements, left ventricular end-diastolic volume (LV vol,d) and end-systolic volume (LV vol,s) were calculated. Ejection fraction percentage (EF) was calculated as [(LVvol,d−LVvol,s)/VLvol,d]×100, and fractional shortening percentage was calculated as [(LVID,d−LVID,s)/LVID,d]×100.
# Animal Handling—Ptpn11^D61G/+ mice were provided from Dr. Benjamin Neel (University of Toronto, Toronto) and were genotyped as described previously^9. Briefly, Ptpn11^D61G/+ male mice were crossed with wild type C75BL/6×SV 129 female mice and their offspring were genotyped by PCR and digestion with AgeI for the D61G allele. Dasatinib (Biovision) was suspended in vehicle (1% DMSO in phosphate buffer saline), For prenatal treatment, dasatinib was injected i.p. (0.1 mg/kg body weight) into pregnant mice daily, beginning on gestational day 7.5 (E7.5) continuing (in nursing females) until postnatal day 9. Vehicle-injected mice served as control. Beginning at P10, dasatinib or vehicle alone was injected (i.p.) directly into pups daily, until 8-weeks after birth. For postnatal treatment, dasatinib was injected (i.p.) into pups at P10, until 6-weeks after birth; injection was discontinued for 2-weeks.
# Echocardiography—Mice were anesthetized in a sealed plastic chamber with 1% isofurane in oxygen until immobile, and then were transferred onto a heated procedure board (37° C.). Animal were kept anesthetized with 1% isoflurane supplied by a nose cone connected to the isoflurane vaporizer during the entire procedure. The scan head was placed on the chest of the mouse and stable image signals (both B mode and M mode) were acquired and data analyzed with Vevo 770 (VisualSonics). Systolic and distolic left ventricle peripheral wall thickness, chamber diameter and interventricular wall thickness were measured with M mode image. Percentage of ejection fraction (EF) and fractional shortening (FS) were calculated.
# tumor incidence = settings: mice; cited from earlier work
# [3] = postnatal 0.1 mg/kg/day from P10 for 6 weeks, Ptpn11Y279C/+ mice
# [4] = prenatal 0.1 mg/kg i.p. daily from E7.5, Ptpn11D61G/+ mice, P42
# [5] = prenatal 0.1 mg/kg i.p. daily from E7.5, WT mice, P42
# [6] = prenatal 0.1 mg/kg i.p. daily from E7.5 continued to P56, Ptpn11D61G/+ mice, P56
# [7] = prenatal 0.1 mg/kg i.p. daily from E7.5 continued to P56, WT mice, P56
compound,measurement,setting,value
"Cc1nc(Nc2ncc(C(=O)Nc3c(C)cccc3Cl)s2)cc(N2CCN(CCO)CC2)n1.O [Dasatinib, N-(2-chloro-6-methylphenyl)-2-[[6-[4-(2-hydroxyethyl)-1-piperazinyl]-2-methyl-4-pyrimidinyl]amino]-5-thiazole carboxamide monohydrate]",molecular markers of cardiomyopathy and fibrosis,"Ptpn11^Y279C/+ mice; 0.1 mg/kg/day, NSML (Y279C/+) mice",improvement
same,"expression of ANP, Myh6 and Myh7",Ptpn11^Y279C/+ mice; [3],complete restoration back to wild type levels
same,ratio of Myh6/Myh7,Ptpn11^Y279C/+ mice; [3],restored to wild type levels
same,"ERK1/2, Raf-1, MEK1, p38 MAPK and JNK phosphorylation in the heart","[1]; 3-week-old NS mice, dasatinib 0.1-0.5 mg/kg i.p.","neither ERK1/2 phosphorylation (FIGS. 13i-13l), Raf-1, MEK1, p38 MAPK, nor JNK were affected"
same,dose sufficient to significantly inhibit both c-Src and PZR tyrosyl phosphorylation in the heart,"[1]; 3-week-old NS mice, i.p., heart isolated after 18 hr",0.5 mg/kg
same,fold lower dose than effective chemotherapeutic doses that can inhibit PZR tyrosyl phosphorylation in the heart,"[1]; NS mice, chemotherapeutic approx. 1.4-2.0 mg/kg/day",up to 250 fold
same,PZR tyrosyl phosphorylation in heart tissue,"[1]; male Ptpn11D61G/+ mice, i.p., 24 h",effective at reducing
same,% EF (ejection fraction),[2]; [4],62.62 ± 2.75 %
same,% FS (fractional shortening),[2]; [4],34.29 ± 2.09 %
same,"IVS, d (Intraventricular septum wall thickness, diastole)",[2]; [4],0.65 ± 0.06 mm
same,"IVS, s (Intraventricular septum wall thickness, systole)",[2]; [4],0.97 ± 0.10 mm
same,"LV vol, d (left ventricle volume, diastole)",[2]; [4],60.93 ± 3.75 mm^3
same,"LV vol, s (left ventricle volume, systole)",[2]; [4],24.21 ± 1.56 mm^3
same,"LVID, d (left ventricular internal dimension, diastole)",[2]; [4],3.61 ± 0.12 mm
same,"LVID, s (left ventricular internal dimension, systole)",[2]; [4],2.32 ± 0.12 mm
same,"LVPW, d (left ventricular posterior wall thickness, diastole)",[2]; [4],0.70 ± 0.04 mm
same,"LVPW, s (left ventricular posterior wall thickness, systole)",[2]; [4],1.12 ± 0.07 mm
same,% EF (ejection fraction),[2]; [5],64.24 ± 2.52%
same,% FS (fractional shortening),[2]; [5],34.70 ± 1.82%
same,"IVS, d (Intraventricular septum wall thickness, diastole)",[2]; [5],0.67 ± 0.04 mm
same,"IVS, s (Intraventricular septum wall thickness, systole)",[2]; [5],1.08 ± 0.09 mm
same,"LV vol, d (left ventricle volume, diastole)",[2]; [5],67.51 ± 2.54 mm^3
same,"LV vol, s (left ventricle volume, systole)",[2]; [5],22.26 ± 1.95 mm^3
same,"LVID, d (left ventricular internal dimension, diastole)",[2]; [5],3.93 ± 0.08 mm
same,"LVID, s (left ventricular internal dimension, systole)",[2]; [5],2.49 ± 0.09 mm
same,"LVPW, d (left ventricular posterior wall thickness, diastole)",[2]; [5],0.76 ± 0.05 mm
same,"LVPW, s (left ventricular posterior wall thickness, systole)",[2]; [5],1.13 ± 0.04 mm
same,% EF (ejection fraction),[2]; [6],51.83 ± 1.60%
same,% FS (fractional shortening),[2]; [6],26.22 ± 1.01%
same,"IVS, d (Intraventricular septum wall thickness, diastole)",[2]; [6],0.70 ± 0.03 mm
same,"IVS, s (Intraventricular septum wall thickness, systole)",[2]; [6],1.02 ± 0.05 mm
same,"LV vol, d (left ventricle volume, diastole)",[2]; [6],73.00 ± 3.42 mm^3
same,"LV vol, s (left ventricle volume, systole)",[2]; [6],37.43 ± 2.08 mm^3
same,"LVID, d (left ventricular internal dimension, diastole)",[2]; [6],4.06 ± 0.11 mm
same,"LVID, s (left ventricular internal dimension, systole)",[2]; [6],3.08 ± 0.07 mm
same,"LVPW, d (left ventricular posterior wall thickness, diastole)",[2]; [6],0.68 ± 0.02 mm
same,"LVPW, s (left ventricular posterior wall thickness, systole)",[2]; [6],0.93 ± 0.06 mm
same,% EF (ejection fraction),[2]; [7],50.96 ± 2.38 %
same,% FS (fractional shortening),[2]; [7],25.84 ± 1.47 %
same,"IVS, d (Intraventricular septum wall thickness, diastole)",[2]; [7],0.69 ± 0.04 mm
same,"IVS, s (Intraventricular septum wall thickness, systole)",[2]; [7],1.07 ± 0.05 mm
same,"LV vol, d (left ventricle volume, diastole)",[2]; [7],79.32 ± 1.22 mm^3
same,"LV vol, s (left ventricle volume, systole)",[2]; [7],40.34 ± 1.60*** mm^3
same,"LVID, d (left ventricular internal dimension, diastole)",[2]; [7],4.21 ± 0.07 mm
same,"LVID, s (left ventricular internal dimension, systole)",[2]; [7],3.04 ± 0.10 mm
same,"LVPW, d (left ventricular posterior wall thickness, diastole)",[2]; [7],0.71 ± 0.04 mm
same,"LVPW, s (left ventricular posterior wall thickness, systole)",[2]; [7],0.95 ± 0.05 mm
same,cardiac function (EF and FS),"[2]; prenatal 0.1 mg/kg, NS mice, P42, monohydrate",improves cardiac function; also recorded: completely restored to wild type parameters; also recorded: complete restoration of cardiac function
same,cardiac failure on continued administration,"[2]; prenatal regimen continued an additional 2 weeks to P56, wild type and NS mice",induced cardiac failure
same,dosage effective in preventing tumor incidence,tumor incidence,~20 mg/kg
